This note sets out measurements from patent publication US9428503B2, “Imidazo[4,5-c]quinolin-2-one compounds and their use in treating Cancer” (AstraZeneca AB, priority 2014, dated 2016).

Counter-ions that a name gives are not always drawn. Some results are limits rather than exact numbers.

Common to all, as to format: cell-based
In one experiment the target is ATM kinase (Homo sapiens (Human), UniProt Q13315). The experiment in a line: Assay a) ATM cellular potency assay (pATM Ser1981 in X-ray irradiated HT29 cells). The note with it: HT29 cells, pATM Ser1981 after X-ray irradiation; geometric mean where repeated; read-out: Assay a) ATM Cell IC50.
The next experiment concerns the target ATR kinase (Homo sapiens (Human), UniProt Q13535). Nature of the experiment: Assay b) ATR cellular potency assay (pChk1 Ser345 in HT29 cells treated with 4NQO). The note with it: HT29 cells, pChk1 Ser345 after 4NQO; geometric mean where repeated; read-out: Assay b) ATR Cell IC50.
The next experiment has as its target PI3K-α (Homo sapiens, UniProt P42336). Nature of the experiment: Assay c) PI3K cellular potency assay (phospho-Akt T308 ELISA in BT474 cells). The note with it: BT474 cells, phospho-Akt T308, 2 h; geometric mean where repeated; read-out: Assay c) PI3Kα Cell IC50.
The target in another experiment is mTOR (Homo sapiens (Human), UniProt P42345). The experiment in a line: Assay d) mTOR cellular potency assay (phospho-AKT Ser473 in MDA-MB-468 cells). The note with it: MDA-MB-468 cells, phospho-AKT Ser473, 2 h; geometric mean where repeated; read-out: Assay d) mTOR Cell IC50.

Chain of ATR kinase (Q13535 whole entry): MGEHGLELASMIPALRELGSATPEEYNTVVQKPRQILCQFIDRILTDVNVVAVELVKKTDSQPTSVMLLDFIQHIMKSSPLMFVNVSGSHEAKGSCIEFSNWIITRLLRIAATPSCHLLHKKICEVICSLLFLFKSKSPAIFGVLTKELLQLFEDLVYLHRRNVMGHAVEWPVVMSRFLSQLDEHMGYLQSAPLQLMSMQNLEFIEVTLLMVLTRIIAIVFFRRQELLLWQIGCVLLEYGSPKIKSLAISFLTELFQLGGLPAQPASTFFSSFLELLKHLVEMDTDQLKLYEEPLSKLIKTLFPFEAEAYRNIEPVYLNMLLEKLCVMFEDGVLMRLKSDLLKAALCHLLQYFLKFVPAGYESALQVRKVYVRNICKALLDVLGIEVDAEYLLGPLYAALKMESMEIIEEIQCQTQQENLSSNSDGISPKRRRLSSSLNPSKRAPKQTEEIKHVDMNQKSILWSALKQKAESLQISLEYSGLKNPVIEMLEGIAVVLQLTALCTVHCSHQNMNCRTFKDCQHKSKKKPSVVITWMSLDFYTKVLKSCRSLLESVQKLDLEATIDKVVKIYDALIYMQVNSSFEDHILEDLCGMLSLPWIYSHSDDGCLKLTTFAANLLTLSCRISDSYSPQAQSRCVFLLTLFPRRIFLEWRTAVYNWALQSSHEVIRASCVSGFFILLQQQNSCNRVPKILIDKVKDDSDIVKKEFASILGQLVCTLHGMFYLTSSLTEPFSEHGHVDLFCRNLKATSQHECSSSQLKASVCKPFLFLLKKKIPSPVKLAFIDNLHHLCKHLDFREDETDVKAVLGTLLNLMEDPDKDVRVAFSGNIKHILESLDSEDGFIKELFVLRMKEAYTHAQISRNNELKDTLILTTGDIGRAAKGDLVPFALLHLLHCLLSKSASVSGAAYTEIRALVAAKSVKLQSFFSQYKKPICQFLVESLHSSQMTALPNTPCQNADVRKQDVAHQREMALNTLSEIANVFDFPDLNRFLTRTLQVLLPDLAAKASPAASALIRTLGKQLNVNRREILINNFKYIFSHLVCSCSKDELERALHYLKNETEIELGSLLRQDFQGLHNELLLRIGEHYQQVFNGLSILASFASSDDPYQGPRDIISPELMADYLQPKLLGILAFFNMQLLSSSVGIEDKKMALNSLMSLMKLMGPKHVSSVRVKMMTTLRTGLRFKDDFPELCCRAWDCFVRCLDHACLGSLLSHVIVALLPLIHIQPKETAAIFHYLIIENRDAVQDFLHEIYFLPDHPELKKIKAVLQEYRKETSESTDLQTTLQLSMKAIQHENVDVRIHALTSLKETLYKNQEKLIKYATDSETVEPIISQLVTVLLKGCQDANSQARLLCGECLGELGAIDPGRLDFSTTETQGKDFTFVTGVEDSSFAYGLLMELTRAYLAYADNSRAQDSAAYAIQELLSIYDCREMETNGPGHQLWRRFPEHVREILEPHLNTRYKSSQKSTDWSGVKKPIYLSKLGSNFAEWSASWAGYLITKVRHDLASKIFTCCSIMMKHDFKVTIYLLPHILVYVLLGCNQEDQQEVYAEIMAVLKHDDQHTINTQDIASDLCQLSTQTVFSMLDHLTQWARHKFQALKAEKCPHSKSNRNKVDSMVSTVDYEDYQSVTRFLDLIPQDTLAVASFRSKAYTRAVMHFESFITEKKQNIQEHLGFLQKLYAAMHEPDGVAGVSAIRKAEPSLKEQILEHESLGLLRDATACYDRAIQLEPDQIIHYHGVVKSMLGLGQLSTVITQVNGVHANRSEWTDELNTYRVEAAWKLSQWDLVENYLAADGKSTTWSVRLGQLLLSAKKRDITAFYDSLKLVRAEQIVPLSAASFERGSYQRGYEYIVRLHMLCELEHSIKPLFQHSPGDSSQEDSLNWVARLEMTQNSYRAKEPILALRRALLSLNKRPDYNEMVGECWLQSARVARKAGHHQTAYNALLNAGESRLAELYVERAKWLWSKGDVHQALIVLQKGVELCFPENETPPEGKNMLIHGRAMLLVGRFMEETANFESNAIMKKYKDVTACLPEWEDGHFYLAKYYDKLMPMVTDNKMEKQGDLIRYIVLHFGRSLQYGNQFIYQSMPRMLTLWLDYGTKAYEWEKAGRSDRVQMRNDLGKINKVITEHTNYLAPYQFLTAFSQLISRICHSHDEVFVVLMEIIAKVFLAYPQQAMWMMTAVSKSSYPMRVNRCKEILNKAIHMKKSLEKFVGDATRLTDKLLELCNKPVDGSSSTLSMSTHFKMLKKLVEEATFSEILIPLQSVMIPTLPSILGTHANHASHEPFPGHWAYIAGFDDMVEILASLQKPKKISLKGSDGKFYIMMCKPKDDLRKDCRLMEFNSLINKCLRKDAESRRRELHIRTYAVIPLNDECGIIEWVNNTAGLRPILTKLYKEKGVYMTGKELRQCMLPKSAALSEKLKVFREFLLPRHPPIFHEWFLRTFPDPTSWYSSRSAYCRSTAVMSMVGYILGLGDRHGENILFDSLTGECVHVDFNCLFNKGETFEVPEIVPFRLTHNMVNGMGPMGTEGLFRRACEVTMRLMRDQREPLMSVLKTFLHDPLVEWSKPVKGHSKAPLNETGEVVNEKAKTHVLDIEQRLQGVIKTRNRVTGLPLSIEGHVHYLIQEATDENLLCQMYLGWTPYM
Chain of ATR kinase (Q8WXE1 whole entry partner): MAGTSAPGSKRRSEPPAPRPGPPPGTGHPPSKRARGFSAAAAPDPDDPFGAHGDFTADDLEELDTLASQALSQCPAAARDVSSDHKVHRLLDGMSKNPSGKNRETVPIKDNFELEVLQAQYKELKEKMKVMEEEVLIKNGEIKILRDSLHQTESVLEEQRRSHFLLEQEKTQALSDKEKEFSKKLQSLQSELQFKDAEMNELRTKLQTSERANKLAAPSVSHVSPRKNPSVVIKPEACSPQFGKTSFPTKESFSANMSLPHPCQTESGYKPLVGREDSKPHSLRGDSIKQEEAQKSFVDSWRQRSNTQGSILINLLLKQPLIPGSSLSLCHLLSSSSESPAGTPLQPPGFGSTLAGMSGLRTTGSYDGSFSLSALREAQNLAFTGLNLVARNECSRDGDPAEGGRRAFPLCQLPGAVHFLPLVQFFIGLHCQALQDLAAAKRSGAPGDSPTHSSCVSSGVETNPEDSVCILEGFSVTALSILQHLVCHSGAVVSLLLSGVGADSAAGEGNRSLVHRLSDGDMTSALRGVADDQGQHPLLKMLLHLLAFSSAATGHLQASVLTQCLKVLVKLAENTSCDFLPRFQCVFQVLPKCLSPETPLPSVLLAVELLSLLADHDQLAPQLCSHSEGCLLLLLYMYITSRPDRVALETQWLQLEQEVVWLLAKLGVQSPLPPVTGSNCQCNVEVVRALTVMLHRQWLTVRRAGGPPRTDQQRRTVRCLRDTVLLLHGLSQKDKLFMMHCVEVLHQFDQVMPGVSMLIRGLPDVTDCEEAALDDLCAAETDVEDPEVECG
Chain of PI3K-α (P42336 whole entry, looked up): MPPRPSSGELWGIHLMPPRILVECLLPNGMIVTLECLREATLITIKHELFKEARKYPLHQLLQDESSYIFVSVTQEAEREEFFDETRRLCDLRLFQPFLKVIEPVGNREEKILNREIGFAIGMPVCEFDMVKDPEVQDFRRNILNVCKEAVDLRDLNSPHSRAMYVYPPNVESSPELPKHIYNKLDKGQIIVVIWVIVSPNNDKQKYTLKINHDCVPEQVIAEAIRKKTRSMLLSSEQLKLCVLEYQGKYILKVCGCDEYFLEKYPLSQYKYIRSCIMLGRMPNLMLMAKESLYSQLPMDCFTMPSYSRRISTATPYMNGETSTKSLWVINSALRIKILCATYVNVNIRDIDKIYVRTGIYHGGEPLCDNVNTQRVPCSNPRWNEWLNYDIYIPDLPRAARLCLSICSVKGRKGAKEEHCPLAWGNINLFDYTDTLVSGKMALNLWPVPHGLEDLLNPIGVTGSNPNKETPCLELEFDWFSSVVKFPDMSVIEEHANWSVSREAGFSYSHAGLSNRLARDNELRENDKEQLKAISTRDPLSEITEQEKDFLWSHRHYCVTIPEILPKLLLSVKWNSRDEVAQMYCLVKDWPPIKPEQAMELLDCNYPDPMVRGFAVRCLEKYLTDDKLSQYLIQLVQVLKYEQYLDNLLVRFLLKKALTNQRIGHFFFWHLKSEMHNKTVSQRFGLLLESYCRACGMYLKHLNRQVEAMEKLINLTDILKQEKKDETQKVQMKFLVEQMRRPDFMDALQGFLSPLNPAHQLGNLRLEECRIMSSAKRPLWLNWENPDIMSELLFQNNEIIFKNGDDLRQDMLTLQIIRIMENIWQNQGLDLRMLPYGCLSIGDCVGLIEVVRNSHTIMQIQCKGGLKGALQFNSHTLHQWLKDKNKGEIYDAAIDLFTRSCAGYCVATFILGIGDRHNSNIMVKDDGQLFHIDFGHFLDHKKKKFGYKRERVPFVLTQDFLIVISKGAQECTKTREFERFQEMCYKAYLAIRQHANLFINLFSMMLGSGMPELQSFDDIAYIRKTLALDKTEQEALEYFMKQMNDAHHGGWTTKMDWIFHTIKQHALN

For `CN(C)CCCOc1ccc(-c2ccc3ncc4c(c3c2)n(C2CCC2)c(=O)n4C)c(F)n1` [Example 51, 1-cyclobutyl-8-[6-[3-(dimethylamino)propoxy]-2-fluoro-3-pyridyl]-3-methyl-imidazo[4,5-c]quinolin-2-one methanesulfonic acid salt], the IC50 (in general, the concentration that gives 50% inhibition) on ATM kinase was 0.000722 µM; on ATR kinase, above 30 µM; on PI3K-α, 3.2 µM; on mTOR it was 5.38 µM.

For the molecule `Cn1c(=O)n(C2COC2)c2c3cc(-c4ccc(OCCCN5CCCCC5)nc4)ccc3ncc21` [Example 56, 3-methyl-1-(oxetan-3-yl)-8-[6-[3-(1-piperdyl)propoxy]-3-pyridyl]imidazo[4,5-c]quinolin-2-one trifluoroacetic acid salt], the IC50 at ATM kinase was 0.00302 µM; on ATR kinase it was above 30 µM; on PI3K-α it was above 26.3 µM; on mTOR, 12.4 µM.

As for `Cn1c(=O)n(C2CCC2)c2c3cc(-c4ccc(OCCCN5CCCCC5)nc4)ccc3ncc21` [Example 57, 1-cyclobutyl-3-methyl-8-[6-[3-(1-piperidyl)propoxy]-3-pyridyl]imidazo[4,5-c]quinolin-2-one trifluoroacetic acid salt], the IC50 at ATM kinase is 0.000434 µM; on ATR kinase it was above 30 µM; at PI3K-α it was above 14.3 µM; on mTOR, 5.77 µM.

As for `Cn1c(=O)n(C2CCC2)c2c3cc(-c4ccc(OCCCN5CCCC5)nc4)ccc3ncc21` [Example 58, 1-cyclobutyl-3-methyl-8-[6-(3-pyrrolidin-1-ylpropoxy)-3-pyridyl]imidazo[4,5-c]quinolin-2-one], the half-inhibitory concentration (IC50) at ATM kinase was 0.00031 µM; on ATR kinase it was above 28.1 µM; at PI3K-α, above 9.56 µM; on mTOR, 7.29 µM.

As to `CO[C@H]1CC[C@H](n2c(=O)n(C)c3cnc4cc(F)c(-c5ccc(OCCCN(C)C)nc5)cc4c32)C1` [Example 63, 8-[6-[3-(Dimethylamino)propoxy]-3-pyridyl]-7-fluoro-1-[(1S,3S)-3-methoxycyclopentyl]-3-methyl-imidazo[4,5-c]quinolin-2-one], the IC50 on ATM kinase was 0.00031 µM; at ATR kinase, above 30 µM; on PI3K-α, 3.28 µM; at mTOR it was 10.8 µM.

As for `CO[C@@H]1CC[C@@H](n2c(=O)n(C)c3cnc4ccc(-c5ccc(OCCCN6CCCCC6)nc5)cc4c32)C1` [Example 64, 1-[(1R,3R)-3-Methoxycyclopentyl]-3-methyl-8-[6-[3-(1-piperidyl)propoxy]-3-pyridyl]imidazo[4,5-c]quinolin-2-one], the IC50 is 0.000741 µM on ATM kinase, above 24.1 µM on ATR kinase, above 30 µM at PI3K-α and 12 µM at mTOR.

With `CO[C@H]1CC[C@H](n2c(=O)n(C)c3cnc4ccc(-c5ccc(OCCCN6CCCCC6)nc5)cc4c32)C1` [Example 65, 1-[(1S,3S)-3-Methoxycyclopentyl]-3-methyl-8-[6-[3-(1-piperidyl)propoxy]-3-pyridyl]imidazo[4,5-c]quinolin-2-one], the IC50 was 0.00022 µM on ATM kinase, above 26.6 µM on ATR kinase, 1.84 µM at PI3K-α and 6.34 µM on mTOR.

Regarding `CO[C@@H]1CC[C@@H](n2c(=O)n(C)c3cnc4ccc(-c5ccc(OCCCN(C)C)nc5F)cc4c32)C1` [Example 68, 8-[6-[3-(Dimethylamino)propoxy]-2-fluoro-3-pyridyl]-1-[(1R,3R)-3-methoxycyclopentyl]-3-methyl-imidazo[4,5-c]quinolin-2-one], the IC50 at ATM kinase is 0.000208 µM; at ATR kinase, above 29 µM; on PI3K-α, 0.644 µM; at mTOR it was 3.18 µM.

As for `CO[C@H]1CC[C@@H](n2c(=O)n(C)c3cnc4cc(F)c(-c5ccc(OCCCN(C)C)nc5)cc4c32)C1` [Example 70, 8-[6-[3-(dimethylamino)propoxy]-3-pyridyl]-7-fluoro-1-[(1R,3S)-3-methoxycyclopentyl]-3-methyl-imidazo[4,5-c]quinolin-2-one], the IC50 on ATM kinase was 0.00243 µM; at ATR kinase, above 24.9 µM; at PI3K-α, above 30 µM; at mTOR, above 30 µM.

Turning to `CO[C@@H]1CC[C@H](n2c(=O)n(C)c3cnc4cc(F)c(-c5ccc(OCCCN(C)C)nc5)cc4c32)C1` [Example 71, 8-[6-[3-(dimethylamino)propoxy]-3-pyridyl]-7-fluoro-1-[(1S,3R)-3-methoxycyclopentyl]-3-methyl-imidazo[4,5-c]quinolin-2-one], the IC50 at ATM kinase is 0.00145 µM; on ATR kinase, above 30 µM; on PI3K-α it was above 11.4 µM; at mTOR, 15.2 µM.
